These compounds were tested on HCV 1b genotype replicon (assay: HCV replicon drug screening assay (quantitative RT-PCR or luciferase), genotype 1b). Settings: Hepatitis C virus, read-out: Genotype-1b replicon EC50 Range.
Format: cell-based
Description: HCV replicon cell lines (kindly provided by R. Bartenschlager) isolated from colonies as described by Lohman et. al. (Lohman et al. (1999) Science 285: 110-113, expressly incorporated by reference in its entirety) and used for all experiments. The HCV replicon has the nucleic acid sequence set forth in EMBL Accession No.: AJ242651, the coding sequence of which is from nucleotides 1801 to 8406.
The coding sequence of the published HCV replicon was synthesized and subsequently assembled in a modified plasmid pBR322 (Promega, Madison, Wis.) using standard molecular biology techniques. One replicon cell line (“SGR 11-7”) stably expresses HCV replicon RNA which consists of (i) the HCV 5′UTR fused to the first 12 amino acids of the capsid protein, (ii) the neomycin phosphotransferase gene (neo), (iii) the IRES from encephalomyocarditis virus (EMCV), and (iv) HCV NS2 to NS5B genes and the HCV 3′UTR. Another replicon cell line (“Huh-luc/neo-ET”) described by Vrolijk et. al. (Vrolijk et. al. (2003) Journal of Virological Methods 110:201-209, expressly incorporated by reference in its entirety) stably expresses HCV replicon RNA which consists of (i) the HCV 5′UTR fused to the first 12 amino acids of the capsid protein, (ii) the firefly luciferase reporter gene, (iii) the ubiquitin gene, (iv) the neomycin phosphotransferase gene (neo), (v) the IRES from encephalomyocarditis virus (EMCV), and (vi) HCV NS3 to NS5B genes that harbor cell culture adaptive mutations (E1202G, T12801, K1846T) and the HCV 3′UTR.
These cell lines are maintained at 37° C., 5% CO2, 100% relative humidity in DMEM (Cat#11965-084, Invitrogen), with 10% fetal calf serum (“FCS”, Invitrogen), 1% non-essential amino acids (Invitrogen), 1% of Glutamax (Invitrogen), 1% of 100× penicillin/streptomycin (Cat#15140-122, Invitrogen) and Geneticin (Cat#10131-027, Invitrogen) at 0.75 mg/ml or 0.5 mg/ml for 11-7 and Huh-luc/neo-ET cells, respectively.
EC50 values of single agent compounds and combinations were determined by HCV RNA detection using quantitative RT-PCR, according to the manufacturer's instructions, with a TAQMAN® One-Step RT-PCR Master Mix Reagents Kit (Cat#AB 4309169, Applied Biosystems) on an ABI Model 7500 thermocycler. The TaqMan primers to use for detecting and quantifying HCV RNA are 5′-GCTGCGGCCTGTCGAGCT-3′ (SEQ ID NO: 1), 5′-CAAGGTCGTCTCCGCATAC-3′ (SEQ ID NO: 2) and the probe 5′-FAM-[…]-BHQ-3′ (SEQ ID NO: 3) obtained from Integrated DNA Technologies. HCV RNA is normalized to GAPDH RNA levels in drug-treated cells, which is detected and quantified using the Human GAPDH Endogenous Control Mix (Applied Biosystems, AB 4310884E). Total cellular RNA is purified from 96-well plates using the RNAqueous 96 kit (Ambion, Cat#AM1812). Chemical agent cytotoxicity was evaluated using an MTS assay according to the manufacturer's directions (Promega).
The compounds described herein can be effective against the HCV 1b genotype. It should also be understood that the compounds can inhibit multiple genotypes of HCV. In one embodiment, compounds of Formula (I) are active against the 1a, 1b, 2a, 2b, 3a, 4a, and 5a genotypes. […] The EC50 ranges were classified into the following groups: A>10 nM; B 1-10 nM; C<1 nM. The potential cytotoxicities of each agent were analyzed in parallel by MTS assay and are greater than 3 uM for all agents.

| SMILES | EC50 [nM] |
| --- | --- |
| COC(=O)N[C@@H](C(=O)N1CCC[C@H]1c1ncc(C(=O)Nc2ccc(NC(=O)c3cnc([C@@H]4CCCN4C(=O)[C@H](NC(=O)OC)c4ccccc4)[nH]3)cc2)[nH]1)c1ccccc1 [Compound 121] | 1 to 10 |

Same assay, conditions: Hepatitis C virus; HCV 1b genotype replicon; quantitative RT-PCR or luciferase assay; read-out: Genotype-1b replicon EC50 Range

| SMILES | EC50 [nM] |
| --- | --- |
| COC(=O)N[C@H](C(=O)N1CCC[C@H]1c1nc2cc(-c3ccc(-c4ccc5[nH]c([C@@H]6CCCN6C(=O)[C@@H](NC(=O)OC)C6CCCC6)nc5c4)cc3)ccc2[nH]1)C1CCCC1 [Compound 24] | < 1 |
| CC[C@H](C)[C@H](NC(=O)OC)C(=O)N1CCC[C@H]1c1nc2cc(-c3ccc4cc(-c5c[nH]c([C@@H]6CCCN6C(=O)[C@@H](NC(=O)OC)[C@@H](C)OC)n5)ccc4c3)ccc2[nH]1 [Compound 54] | < 1 |
| COC(=O)N[C@H](C(=O)N1CCC[C@H]1c1nc(-c2ccc(C#Cc3ccc4[nH]c([C@@H]5CCCN5C(=O)[C@H](NC(=O)OC)C(C)C)nc4c3)cc2)c[nH]1)C(C)C [Compound 83] | < 1 |
| CON=C1C[C@@H](c2nc3cc(C#Cc4ccc(-c5c[nH]c([C@@H]6CCCN6C(=O)[C@@H](NC(=O)OC)C(C)C)n5)cc4)ccc3[nH]2)N(C(=O)[C@@H](NC(=O)OC)C(C)C)C1 [Compound 131] | < 1 |
| COC(=O)N[C@H](C(=O)N1CCC[C@H]1c1nc(-c2ccc(C#Cc3ccc4[nH]c([C@@H]5CCCN5C(=O)[C@H](NC(=O)OC)c5ccccc5)nc4c3)cc2)c[nH]1)C(C)C [Compound 79] | < 1 |
| COC(=O)N[C@H](C(=O)N1CCC[C@H]1c1nc(-c2ccc3cc(C#Cc4ccc5[nH]c([C@@H]6CCCN6C(=O)[C@@H](NC(=O)OC)C(C)C)nc5c4)ccc3c2)c[nH]1)C(C)C [Compound 60] | < 1 |
| COC(=O)N[C@H](C(=O)N1CCC[C@H]1c1nc(-c2ccc(C#Cc3ccc4[nH]c([C@@H]5C[C@@H](O)CN5C(=O)[C@@H](NC(=O)OC)C(C)C)nc4c3)cc2)c[nH]1)C(C)C [Compound 91] | < 1 |
| COC(=O)N[C@@H](C(=O)N1CCC[C@H]1c1nc2cc(CCCc3ccc4nc([C@@H]5CCCN5C(=O)[C@H](NC(=O)OC)c5ccccc5)[nH]c4c3)ccc2[nH]1)c1ccccc1 [Compound 31] | < 1 |
| COC(=O)N[C@H](C(=O)N1CCC[C@H]1c1nc(-c2ccc(OCc3ccc4[nH]c([C@@H]5CCCN5C(=O)[C@@H](NC(=O)OC)C(C)C)nc4c3)cc2)c[nH]1)C(C)C [Compound 44] | < 1 |
| COC(=O)N[C@@H](C(=O)N1CCC[C@H]1c1nc(-c2ccc(/C=C/c3ccc4[nH]c([C@@H]5CCCN5C(=O)[C@H](NC(=O)OC)c5ccccc5)nc4c3)cc2)c[nH]1)c1ccccc1 [Compound 38] | < 1 |
| COC(=O)N[C@H](C(=O)N1CCC[C@H]1c1nc(C#Cc2ccc3cc(-c4ccc5[nH]c([C@@H]6CCCN6C(=O)[C@@H](NC(=O)OC)C(C)C)nc5c4)ccc3c2)c[nH]1)C(C)C [Compound 57] | < 1 |
| COC(=O)N[C@H](C(=O)N1CCC[C@H]1c1nc2cc(C#Cc3ccc(-c4c[nH]c(C5[C@H]6CC[C@H](C6)N5C(=O)[C@@H](NC(=O)OC)C(C)C)n4)cc3)ccc2[nH]1)C(C)C (stereo partly drawn) [Compound 122] | < 1 |
| COC(=O)N[C@H](C(=O)N1CCC[C@H]1c1nc(-c2ccc(CCc3ccc4[nH]c([C@@H]5CCCN5C(=O)[C@@H](NC(=O)OC)C(C)C)nc4c3)s2)c[nH]1)C(C)C [Compound 46] | < 1 |
| COC(=O)N[C@H](C(=O)N1CCC[C@H]1c1nc(-c2ccc(C#Cc3ccc4[nH]c([C@@H]5CCCN5C(=O)[C@@H](NC(=O)OC)[C@@H](C)OC)nc4c3)cc2)c[nH]1)C(C)C [Compound 80] | < 1 |
| COC(=O)N[C@H](C(=O)N1CCC[C@H]1c1nc(-c2ccc(C#Cc3cc4nc([C@@H]5CCCN5C(=O)[C@@H](NC(=O)OC)C(C)C)[nH]c4cc3Cl)cc2)c[nH]1)C(C)C [Compound 65] | < 1 |
| COC(=O)N[C@@H](C(=O)N1CCC[C@H]1c1nc2cc(NC(=O)Nc3ccc4nc([C@@H]5CCCN5C(=O)[C@H](NC(=O)OC)c5ccccc5)[nH]c4c3)ccc2[nH]1)c1ccccc1 [Compound 32] | > 10 |

| SMILES | EC50 [nM] |
| --- | --- |
| COC(=O)N[C@@H](C(=O)N1CCC[C@H]1c1nc2cc(CC=CCc3ccc4[nH]c([C@@H]5CCCN5C(=O)[C@H](NC(=O)OC)c5ccccc5)nc4c3)ccc2[nH]1)c1ccccc1 [Compound 28] | < 1 |
| COC(=O)N[C@H](C(=O)N1CCC[C@H]1c1ncc(-c2ccc(C#Cc3ccc4nc([C@@H]5CCCN5C(=O)[C@@H](NC(=O)OC)[C@H](C)O)[nH]c4c3)cc2)[nH]1)C(C)C [Compound 101] | < 1 |
| COC(=O)N[C@H](C(=O)N1CCC[C@H]1c1nc2cc(-c3ccc4cc(-c5c[nH]c([C@@H]6CCCN6C(=O)[C@@H](NC(=O)OC)[C@@H](C)OC)n5)ccc4c3)ccc2[nH]1)C(C)C [Compound 52] | < 1 |
| COC(=O)N[C@H](C(=O)N1CCC[C@H]1c1ncc(-c2ccc(C#Cc3ccc4nc([C@@H]5CCCN5C(=O)[C@@H](NC(=O)OC)C5CC5)[nH]c4c3)cc2)[nH]1)C(C)C [Compound 98] | < 1 |
| COC(=O)N[C@H](C(=O)N1C[C@H](O)C[C@H]1c1ncc(-c2ccc(C#Cc3ccc4nc([C@@H]5CCCN5C(=O)[C@@H](NC(=O)OC)C(C)C)[nH]c4c3)cc2)[nH]1)C(C)C [Compound 105] | < 1 |
| COC(=O)N[C@H](C(=O)N1CCC[C@H]1c1nc(-c2ccc(C#Cc3ccc4[nH]c([C@@H]5[C@H]6CC[C@H](C6)N5C(=O)[C@@H](NC(=O)OC)C(C)C)nc4c3)cc2)c[nH]1)C(C)C [Compound 123] | < 1 |
| COC(=O)N[C@H](C(=O)N1CCC[C@H]1c1nc(-c2ccc3cc(-c4ccc5[nH]c([C@@H]6CCCN6C(=O)[C@H](NC(=O)OC)c6ccccc6)nc5c4)ccc3c2)c[nH]1)[C@@H](C)OC [Compound 51] | < 1 |
| [2H]c1c([2H])c(-c2c[nH]c([C@@H]3CCCN3C(=O)[C@@H](NC(=O)OC)C(C)C)n2)c([2H])c([2H])c1C#Cc1ccc2[nH]c([C@@H]3CCCN3C(=O)[C@@H](NC(=O)OC)C(C)C)nc2c1 [Compound 67] | < 1 |
| COC(=O)N[C@H](C(=O)N1CCC[C@H]1c1nc(-c2ccc3cc(-c4ccc5[nH]c([C@@H]6CCCN6C(=O)[C@@H](NC(=O)OC)[C@@H](C)OC)nc5c4)ccc3c2)c[nH]1)[C@@H](C)OC [Compound 49] | < 1 |
| COC(=O)N[C@H](C(=O)N1CCC[C@H]1c1nc(CCc2ccc3cc(-c4ccc5[nH]c([C@@H]6CCCN6C(=O)[C@@H](NC(=O)OC)C(C)C)nc5c4)ccc3c2)c[nH]1)C(C)C [Compound 58] | < 1 |
| COC(=O)N[C@H](C(=O)N1CCC[C@H]1c1ncc(-c2ccc(C#Cc3cc4[nH]c([C@@H]5CCCN5C(=O)[C@@H](NC(=O)OC)C(C)C)nc4cc3OC)cc2)[nH]1)C(C)C [Compound 110] | < 1 |
| COC(=O)N[C@H](C(=O)N1CCC[C@H]1c1nc(-c2ccc(C#Cc3ccc4[nH]c([C@@H]5CCCN5C(=O)[C@@H](NC(C)=O)C(C)C)nc4c3)cc2)c[nH]1)C(C)C [Compound 81] | < 1 |
| COC(=O)N[C@H](C(=O)N1CCC[C@H]1c1nc2cc(C#Cc3ccc(-c4ccc5[nH]c([C@@H]6CCCN6C(=O)[C@@H](NC(=O)OC)C(C)C)nc5c4)cc3)ccc2[nH]1)C(C)C [Compound 33] | < 1 |
| COC(=O)N[C@@H](C(=O)N1CCC[C@H]1c1nc(-c2ccc(C#Cc3ccc4[nH]c([C@@H]5CCCN5C(=O)[C@H](NC(=O)OC)c5ccccc5)nc4c3)cc2)c[nH]1)c1ccccc1 [Compound 36] | < 1 |
| COC(=O)N[C@@H](C(=O)N1CCC[C@H]1c1cc(-c2ccc(CCc3ccc4[nH]c([C@@H]5CCCN5C(=O)[C@H](NC(=O)OC)c5ccccc5)nc4c3)cc2)n[nH]1)c1ccccc1 [Compound 42] | < 1 |
| COC(=O)N[C@@H](C(=O)N1CCC[C@H]1c1nc2cc(CC=Cc3ccc4nc([C@@H]5CCCN5C(=O)[C@H](NC(=O)OC)c5ccccc5)[nH]c4c3)ccc2[nH]1)c1ccccc1 [Compound 30] | < 1 |

Source: patent publication US9060971B2, “Combination pharmaceutical agents as inhibitors of HCV replication” (Enanta Pharmaceuticals, Inc., priority 2010, dated 2015)
